Experimental data: the OligoGym collection
These antisense oligonucleotides have a phosphorothioate backbone; sugars and methylation of C are not fully specified.

These sequences were tested against GNAS. Conditions: ASO.
Further: test concentration or dose not given here.

Row | Sequence | remaining target (mRNA or protein) (fraction of control)
1 | TTTGTTTGCTGCTGCTGTTT | 0.96
2 | TTTGCTGCTGCTGTTTTATT | 0.66
3 | TGCTGCTGTTTTATTTATTT | ≥ 1
4 | TATTTGTTTGCTGCTGCTGT | ≥ 1
5 | TGCGCTGAATGATGTCACGG | 0.41
6 | TGAATGATGTCACGGCAGTC | 0.69
7 | TCATTTTATTTGTTTGCTGC | 0.75
8 | TTTTACTGAAAGTGAGAGGG | 0.9
9 | TTGCTGCTGCTGTTTTATTT | ≥ 1
10 | GTGAAATGAGGGTAGCAGTA | ≥ 1
11 | TCATTTGTTTCTTTTATTTC | 0.85
12 | TGAGAGGGAACTTTTGTGGC | 0.72
13 | CGGCGGATGTTCTCAGTGTC | 0.32
14 | ACGGCGGATGTTCTCAGTGT | 0.71
15 | TGTTTGCTGCTGCTGTTTTA | 0.96
16 | GTTTGCTGCTGCTGTTTTAT | 0.53
17 | TTGTTTCTTTTATTTCATTT | ≥ 1
18 | TGTTCTCAGTGTCCACAGCG | 0.39
19 | TGGTTGCCTTCTCACTGTCT | 0.62
20 | TTTGGAACATCTAAGCAAGC | 0.97
21 | GTTGCCTTCTCACTGTCTCC | 0.75
22 | TCTTTTATTTCATTTTATTT | 0.84
23 | ATTTGTTTGCTGCTGCTGTT | 0.81
24 | ACTGAAAGTGAGAGGGAACT | ≥ 1

Row | Sequence | remaining target (mRNA or protein) (fraction of control)
25 | GATGTTCTCAGTGTCCACAG | 0.45
26 | TATTTCATTTGTTTATTTTA | ≥ 1
27 | GGGTTTCGCAAAATCACTCG | 0.61
28 | ATTTATTTCATTTGTTTCTT | ≥ 1
29 | GGTTTCGCAAAATCACTCGG | 0.41
30 | TTTATTTCATTTTATTTGTT | ≥ 1
31 | GTGAGAGGGAACTTTTGTGG | 0.72
32 | GCAGGTGAAATGAGGGTAGC | ≥ 1
33 | CATTTTATTTGTTTGCTGCT | 0.65
34 | ATATTTATTTCATTTGTTTC | 0.61
35 | GGTTCCCTTCTTAGAGCAGC | ≥ 1
36 | AGCGCAGGTGAAATGAGGGT | ≥ 1
37 | TACTGAAAGTGAGAGGGAAC | 0.65
38 | TTGCCTTCTCACTGTCTCCA | 0.56
39 | TATTTATTTCATTTGTTTCT | ≥ 1
40 | GCTGCTGTTTTATTTATTTT | 0.75
41 | TTTGTTTCTTTTATTTCATT | 0.83
42 | CATTTGTTTCTTTTATTTCA | 0.65
43 | CAGGTGAAATGAGGGTAGCA | ≥ 1
44 | CACGGCGGATGTTCTCAGTG | 0.44
45 | TGCTGCTGCTGTTTTATTTA | 0.62
46 | GCGCTGAATGATGTCACGGC | 0.38
47 | TTACTGAAAGTGAGAGGGAA | ≥ 1
48 | TTTATTTCATTTGTTTCTTT | 0.93

Row | Sequence | remaining target (mRNA or protein) (fraction of control)
49 | TTATTTCATTTTATTTGTTT | 0.92
50 | CTGCTGCTGTTTTATTTATT | 0.63
51 | AGGTGAAATGAGGGTAGCAG | ≥ 1
52 | TTTCATTTTATTTGTTTGCT | ≥ 1
53 | TGCCTTCTCACTGTCTCCAT | 0.75
54 | GCTGCTGCTGTTTTATTTAT | 0.43
55 | TTTCTTTTATTTCATTTTAT | ≥ 1
56 | ATTTCATTTGTTTCTTTTAT | 0.76
57 | GTTTCGCAAAATCACTCGGG | 0.5
58 | ATGTTCTCAGTGTCCACAGC | 0.58
59 | GCGCAGGTGAAATGAGGGTA | 0.9
60 | TTATTTCATTTGTTTCTTTT | 0.64
61 | TTTCATTTGTTTCTTTTATT | ≥ 1
62 | TTGTTTGCTGCTGCTGTTTT | 0.45
63 | TTTTATTTCATTTTATTTGT | 0.91
64 | GTTTCTTTTATTTCATTTTA | ≥ 1
65 | ACACGGCGGATGTTCTCAGT | 0.39
66 | ACACACGGCGGATGTTCTCA | 0.42
67 | GGGTTCCCTTCTTAGAGCAG | 0.52
68 | GAATGATGTCACGGCAGTCG | 0.39
69 | TTCATTTTATTTGTTTGCTG | 0.79
70 | ATTTGGAACATCTAAGCAAG | 0.66
71 | TTCATTTGTTTCTTTTATTT | ≥ 1

These sequences were tested against GNA12. Conditions: ASO.

Row | Sequence | remaining target (mRNA or protein) (fraction of control)
72 | GGAAGTACTTCACCGACT | ≥ 1
73 | TCGAAGATGGTGTCGCGG | 0.98
74 | GTGGTGAAGTGGTGGAAG | 0.87
75 | CTCAGGGCCGGGACGTAC | 0.77
76 | GTTGAAGAAGAGCTTGTT | 0.33
77 | AGGATGTTGTCGAAGATG | 0.77
78 | TTGTTGACGATGGTCTCG | 0.73
79 | TCTGGTCGAACTCGCGGC | 0.7
80 | TCCGGTCCAAGTTGTCCA | 0.88
81 | AAGTTGTCCAGGAAGTAC | 0.44
82 | GGCAGCGGCTGAGGGTCC | 0.68
83 | ACTCGCTTCTCCGGCTGA | 0.85
84 | CACAATTCCCTTGGTGGC | ≥ 1
85 | GGGACGTACAGCTGGAAG | 0.53
86 | CCGCTGGCCGCCCACATC | 0.47
87 | CTTGGTGGCTTTCCTAGC | ≥ 1
88 | GGACCTGGTCGTACTCGC | 0.42
89 | CTGAGGGTCCGCACCACC | ≥ 1
90 | CCGTCGAAGCACTGGAAC | 0.8
91 | GTGCATCAACAAGAACCC | 0.89
92 | GGATGATGCGCATCTGCT | ≥ 1
93 | CTGGAGGAGACCATGAAC | ≥ 1
94 | CCCTGATGCCAGAATCCC | 0.39

Row | Sequence | remaining target (mRNA or protein) (fraction of control)
95 | GGTTCTCCTGCAGGATGG | 0.93
96 | CCTGTCGAAGCACTGGAC | 0.34
97 | GATATCTTGCTTACTAGG | 0.37
98 | GTCGATGTCGCGGCTACG | ≥ 1
99 | TCAGGAACATCCCATGCT | 0.79
100 | GCTCACGGTCTTCACCTT | ≥ 1
101 | ACAAGAACCCTTGAGCCC | 0.74
102 | GGTGCGCCTGTCCTCCAT | 0.33
103 | GAAAGCCTCCCTGATGCC | 0.38
104 | AGCAGGCAGCGGCTGAGG | 0.93
105 | GTGCGCTCAGGGCCGGGA | 0.72
106 | TTTTCAGAATACTGCCAA | 0.63
107 | GAAGCGGACGTTCTCGGT | ≥ 1
108 | CACATCCACCATCTTAAA | ≥ 1
109 | ATGATGGAGACGTTGAAG | ≥ 1
110 | GGTGGAAGAGTGGCTTGC | 0.65
111 | GGAAGAGAATGATGGAGA | ≥ 1
112 | GCGCATCTGCTTGAGGAA | 0.82
113 | CCTGAAGTCCGGGAAGTG | 0.85
114 | CCAGCAGCGCGTCGATGT | 0.29
115 | CAGCCGGTTGGTGCGCCT | 0.25
116 | ACGTGGACTTGCCGCTCT | 0.32
117 | CCATGCTTCTCATTTTCA | 0.49

Row | Sequence | remaining target (mRNA or protein) (fraction of control)
118 | TGGTCTCGAAGATGTTCA | 0.53
119 | AAGATGTTCATGGACTCC | 0.33
120 | GTCGTACTCGCTGGAGGA | 0.39
121 | TTAATAACGAAGTCATGC | 0.73
122 | ACTGCCAAGGAATGCCAA | ≥ 1
123 | GTGGACTTGCCGCTCTCG | ≥ 1
124 | TCCATGAGGACCTGGTCG | 0.79
125 | CTTATCTCGTGCATCAAC | 0.51
126 | GTCCATCTTGTTGAGGAA | 0.68
127 | TCTTCTTAATAACGAAGT | 0.48
128 | AATTCAGCTGGCCGATCC | 0.59
129 | AAGTCATGCTCCACAATT | 0.64
130 | CTCGCGGCCGTGGATGAT | 0.99
131 | CGAAGGCCATCAGGAACA | ≥ 1
132 | AGCATGATGTCCTTCAGG | 0.29
133 | CTCCAGCAGCGCCTTCTG | ≥ 1
134 | CTGGAACCACTTCTGGCG | 0.89
135 | GCGCCTTCTGGTCGAACT | 0.72
136 | CACCAGGAGGTCCATCTT | 0.75
137 | CATGGAACACGAAGCGGA | 0.57
138 | ACTAGGAAAGTAATTCAG | 0.47
